pIC50: −log10 of the molar value.
What was measured:
Format in all cases: cell-based
[1] = system: A2780 (ovarian) cells; test: Anti-proliferative activity, Cell-Titre luminescent viability assay; settings: Homo sapiens, 72 h exposure, Cell-Titre luminescent reagent
In short: (§1)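 Cells attached 24 h at 37° C., 5% CO2, then treated 72 h with compound at 0.3–100 μM or 0.1–30 μM. Viability read by Cell-Titre luminescence after 30 min reagent exposure, normalized to vehicle; EC50 from variable-slope sigmoidal nonlinear regression.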

[2] = system: A549 (NSCLC) cells; test: as above; settings: Homo sapiens, 72 h exposure, Cell-Titre luminescent reagent
In short: as §1

[3] = system: SK-N-SH neuroblastoma cells; test: Cytotoxicity assay, MTS viability; settings: Homo sapiens, 72 hours
Description: The ability of compounds of the disclosure to inhibit the proliferation of SK—N—SH neuroblastoma cells was assessed. The SK—N—SH cell line was maintained as a monolayer in Dulbeccos Modified Eagles medium (DMEM) supplemented with 10% foetal bovine serum (FBS) and grown at 37° C. in a humidified atmosphere with 5% CO2. For the cytotoxicity assay, SK—N—SH cells were seeded at a density of 2×10^3 cells per well in 96-well plates. The cells were treated with serial dilutions of the test compounds (1:2 starting concentration 100 µM) and viability measured after 72 hours using a standard MTS assay. Cell viability was normalised to control (vehicle alone) and dose response curves and EC50 values (Table 3) were determined using Graph Pad Prism 6.

SMILES	pIC50 [1]	pIC50 [2]	pIC50 [3]
Cc1ccc(NC(=O)C2CCN(S(=O)(=O)c3ccc4[nH]ccc4c3)CC2)cc1O [Compound 7, 1-((1H-indol-5-yl)sulfonyl)-N-(3-hydroxy-4-methylphenyl)piperidine-4-carboxamide]	4.38	4.35	4.49
Cn1cc(S(=O)(=O)N2CCN(C(=O)Nc3ccc(C(F)(F)F)cc3)CC2)cc1C(N)=O [Compound 11, 4-((5-carbamoyl-1-methyl-1H-pyrrol-3-yl)sulfonyl)-N-(4-(trifluoromethyl)phenyl)piperazine-1-carboxamide]	4.32	< 4.00	< 4.00
O=C(Nc1ccc(C(F)(F)F)cc1)N1CCN(S(=O)(=O)c2ccc3c(c2)CCN3)CC1 [Compound 14, 4-(indolin-5-ylsulfonyl)-N-(4-(trifluoromethyl)phenyl)piperazine-1-carboxamide]	4.61	4.48	4.57
CCC(C)c1ccc(NC(=O)N2CCN(S(=O)(=O)c3ccc4[nH]ccc4c3)CC2)cc1 (stereo not drawn) [Compound 15, 4-((1H-indol-5-yl)sulfonyl)-N-(4-(sec-butyl)phenyl)piperazine-1-carboxamide]	4.65	4.59	4.83
Cc1ccc(NC(=O)N2CCN(S(=O)(=O)c3ccc4[nH]ccc4c3)CC2)cc1O [Compound 16, 4-((1H-indol-5-yl)sulfonyl)-N-(3-hydroxy-4-methylphenyl)piperazine-1-carboxamide]	4.54	4.76	4.50
O=C(Nc1ccc(C(F)(F)F)cc1)N1CCN(S(=O)(=O)c2ccc3[nH]ccc3c2)CC1 [Compound 17, 4-((1H-indol-5-yl)sulfonyl)-N-(4-(trifluoromethyl)phenyl)piperazine-1-carboxamide]	4.86	5.19	4.64
CCC(C)c1ccc(NC(=O)c2ccn(S(=O)(=O)c3cc(C(N)=O)n(C)c3)c2)cc1 (stereo not drawn) [Compound 18, 4-((3-((4-(sec-butyl)phenyl)carbamoyl)-1H-pyrrol-1-yl)sulfonyl)-1-methyl-1H-pyrrole-2-carboxamide]	5.17	4.56	4.65
CCC(C)c1ccc(NC(=O)c2ccn(S(=O)(=O)c3ccc4c(c3)CCN4)c2)cc1 (stereo not drawn) [Compound 21, N-(4-(sec-butyl)phenyl)-1-(indolin-5-ylsulfonyl)-1H-pyrrole-3-carboxamide]	4.70	4.43	4.57
Cc1ccc(NC(=O)c2ccn(S(=O)(=O)c3ccc4c(c3)CCN4)c2)cc1O [Compound 22, N-(3-hydroxy-4-methylphenyl)-1-(indolin-5-ylsulfonyl)-1H-pyrrole-3-carboxamide]	< 4.00	< 4.00	4.24
O=C(Nc1ccc(C(F)(F)F)cc1)c1ccn(S(=O)(=O)c2ccc3c(c2)CCN3)c1 [Compound 23, 1-(indolin-5-ylsulfonyl)-N-(4-(trifluoromethyl)phenyl)-1H-pyrrole-3-carboxamide]	5.28	4.94	4.89
Cc1ccc(NC(=O)c2ccn(S(=O)(=O)c3ccc4[nH]ccc4c3)c2)cc1O [Compound 25, 1-((1H-indol-5-yl)sulfonyl)-N-(3-hydroxy-4-methylphenyl)-1H-pyrrole-3-carboxamide]	< 4.00	< 4.00	4.52
CCC(C)c1ccc(NC(=O)C2CCN(S(=O)(=O)c3ccn(C)c3)CC2)cc1 (stereo not drawn) [Compound 28, N-(4-(sec-butyl)phenyl)-1-((1-methyl-1H-pyrrol-3-yl)sulfonyl)piperidine-4-carboxamide]	4.61	4.89	4.93
CCC(C)c1ccc(NC(=O)C2CCN(S(C)(=O)=O)CC2)cc1 (stereo not drawn) [Compound 29, N-(4-(sec-butyl)phenyl)-1-(methylsulfonyl) piperidine-4-carboxamide]	< 4.00	< 4.00	< 4.00
CCC(C)c1ccc(CCC2CCN(S(=O)(=O)c3cc(C(N)=O)n(C)c3)CC2)cc1 (stereo not drawn) [Compound 34, 4-((4-(4-(sec-butyl)phenethyl)piperidin-1-yl)sulfonyl)-1-methyl-1H-pyrrole-2-carboxamide]	5.27	5.49	4.33
CCC(C)c1cccc(NC(=O)c2ccn(S(=O)(=O)c3ccc4[nH]ccc4c3)c2)c1 (stereo not drawn) [Compound 35, 1-((1H-indol-5-yl)sulfonyl)-N-(3-(sec-butyl)phenyl)-1H-pyrrole-3-carboxamide]	5.66	5.44	5.17
CCC(C)c1ccccc1NC(=O)c1ccn(S(=O)(=O)c2ccc3[nH]ccc3c2)c1 (stereo not drawn) [Compound 36, 1-((1H-indol-5-yl)sulfonyl)-N-(2-(sec-butyl)phenyl)-1H-pyrrole-3-carboxamide]	5.21	5.05	4.65

SMILES	pIC50 [1]	pIC50 [2]	pIC50 [3]
CC(C)c1ccc(NC(=O)c2ccn(S(=O)(=O)c3ccc4[nH]ccc4c3)c2)cc1 [Compound 37, 1-((1H-indol-5-yl)sulfonyl)-N-(4-isopropylphenyl)-1H-pyrrole-3-carboxamide]	5.37	5.24	4.96
CC(C)c1cccc(NC(=O)c2ccn(S(=O)(=O)c3ccc4[nH]ccc4c3)c2)c1 [Compound 38, 1-((1H-indol-5-yl)sulfonyl)-N-(3-isopropylphenyl)-1H-pyrrole-3-carboxamide]	5.17	5.27	4.92
CCc1cccc(NC(=O)c2ccn(S(=O)(=O)c3ccc4[nH]ccc4c3)c2)c1 [Compound 41, 1-((1H-indol-5-yl)sulfonyl)-N-(3-ethylphenyl)-1H-pyrrole-3-carboxamide]	5.96	4.89	4.79
Cc1cccc(NC(=O)c2ccn(S(=O)(=O)c3ccc4[nH]ccc4c3)c2)c1 [Compound 44, 1-((1H-indol-5-yl)sulfonyl)-N-(m-tolyl)-1H-pyrrole-3-carboxamide]	5.60	5.06	4.82
Cc1ccccc1NC(=O)c1ccn(S(=O)(=O)c2ccc3[nH]ccc3c2)c1 [Compound 45, 1-((1H-indol-5-yl)sulfonyl)-N-(o-tolyl)-1H-pyrrole-3-carboxamide]	5.66	5.28	4.57
O=C(Nc1cccc(C(F)(F)F)c1)c1ccn(S(=O)(=O)c2ccc3[nH]ccc3c2)c1 [Compound 46, 1-((1H-indol-5-yl)sulfonyl)-N-(3-(trifluoromethyl)phenyl)-1H-pyrrole-3-carboxamide]	5.15	5.11	4.83
O=C(Nc1ccccc1C(F)(F)F)c1ccn(S(=O)(=O)c2ccc3[nH]ccc3c2)c1 [Compound 47, 1-((1H-indol-5-yl)sulfonyl)-N-(2-(trifluoromethyl)phenyl)-1H-pyrrole-3-carboxamide]	5.80	5.64	4.56
O=C(Nc1cccc(F)c1)c1ccn(S(=O)(=O)c2ccc3[nH]ccc3c2)c1 [Compound 49, 1-((1H-indol-5-yl)sulfonyl)-N-(3-fluorophenyl)-1H-pyrrole-3-carboxamide]	5.39	5.20	4.81
O=C(Nc1ccccc1F)c1ccn(S(=O)(=O)c2ccc3[nH]ccc3c2)c1 [Compound 50, 1-((1H-indol-5-yl)sulfonyl)-N-(2-fluorophenyl)-1H-pyrrole-3-carboxamide]	5.74	5.40	4.94
CCC(C)c1ccc(NC(=O)c2ccn(S(=O)(=O)c3ccc4[nH]c(C)cc4c3)c2)cc1 (stereo not drawn) [Compound 57, N-(4-(sec-butyl)phenyl)-1-((2-methyl-1H-indol-5-yl)sulfonyl)-1H-pyrrole-3-carboxamide]	5.41	5.41	5.14
CCC(C)c1ccc(NC(=O)c2ccn(S(=O)(=O)c3ccc4[nH]cc(C)c4c3)c2)cc1 (stereo not drawn) [Compound 58, N-(4-(sec-butyl)phenyl)-1-((3-methyl-1H-indol-5-yl)sulfonyl)-1H-pyrrole-3-carboxamide]	5.68	5.42	4.85
CCC(C)c1ccc(NC(=O)c2ccn(S(=O)(=O)c3ccc4[nH]c(C)c(C)c4c3)c2)cc1 (stereo not drawn) [Compound 59, N-(4-(sec-butyl)phenyl)-1-((2,3-dimethyl-1H-indol-5-yl)sulfonyl)-1H-pyrrole-3-carboxamide]	5.34	5.21	4.99
CCC(C)c1ccc(NC(=O)c2ccn(S(=O)(=O)c3cnc4[nH]ccc4c3)c2)cc1 (stereo not drawn) [Compound 60, 1-((1H-pyrrolo[2,3-b]pyridin-5-yl)sulfonyl)-N-(4-(sec-butyl)phenyl)-1H-pyrrole-3-carboxamide]	5.42	5.41	4.88
O=C(Nc1cccc(C(F)(F)F)c1)C1CCN(S(=O)(=O)c2ccc3[nH]ccc3c2)CC1 [Compound 63, 1-((1H-indol-5-yl)sulfonyl)-N-(3-(trifluoromethyl)phenyl) piperidine-4-carboxamide]	4.96	4.90	4.87
CCC(C)c1ccc(NC(=O)C2CCN(S(=O)(=O)c3ccc4cc[nH]c4c3)CC2)cc1 (stereo not drawn) [Compound 64, 1-((1H-indol-6-yl)sulfonyl)-N-(4-(sec-butyl)phenyl) piperidine-4-carboxamide]	5.01	4.85	5.39
